Measured values taken from PubChem BioAssay AID2060609 (Molecular Pharmacology Branch, DTP, NCI, 2025).

System: 855422-203-R-J1-PDC complex spheroids, viability
Test: Anticancer human tumor 855422-203-R-J1-PDC patient-derived bladder carcinoma cell line growth inhibition [CLK]
Details: for IC50: curve of first compound; for viability, T/C: stronger effect = lower value; active = viability on the fitted dose curve at most 10% of control; inactive = the rest
How it was run: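 Multi-cell-type spheroids combined patient-derived tumor cells with HUVEC endothelial cells and human mesenchymal stem cells. Paired agents were dosed in half-log steps down from about clinical Cmax, or from 10 microM where Cmax was unknown.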

[1] = second compound 0.0316 µM, first compound 0.0316 µM
[2] = second compound 0.0316 µM, first compound 0.1 µM
[3] = second compound 0.0316 µM, first compound 0.316 µM
[4] = second compound 0.0316 µM, first compound 1 µM
[5] = second compound 0.1 µM, first compound 0.0316 µM
[6] = second compound 0.1 µM, first compound 0.1 µM
[7] = second compound 0.1 µM, first compound 0.316 µM
[8] = second compound 0.1 µM, first compound 1 µM
[9] = second compound 0.316 µM, first compound 0.0316 µM
[10] = second compound 0.316 µM, first compound 0.1 µM
[11] = second compound 0.316 µM, first compound 0.316 µM
[12] = second compound 0.316 µM, first compound 1 µM
[13] = second compound 1 µM, first compound 0.0316 µM
[14] = second compound 1 µM, first compound 0.1 µM
[15] = second compound 1 µM, first compound 0.316 µM
[16] = second compound 1 µM, first compound 1 µM
[17] = second compound 3.16 µM, first compound 0.0316 µM
[18] = second compound 3.16 µM, first compound 0.1 µM
[19] = second compound 3.16 µM, first compound 0.316 µM
[20] = second compound 3.16 µM, first compound 1 µM
[21] = second compound 10 µM, first compound 0.0316 µM
[22] = second compound 10 µM, first compound 0.1 µM
[23] = second compound 10 µM, first compound 0.316 µM
[24] = second compound 10 µM, first compound 1 µM
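Also: spheroids exposed to drugs for seven days before readout.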
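For viability, T/C in this document: 100% = DMSO vehicle control wells.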

CCN1CCN(Cc2ccc(Nc3ncc(F)c(-c4cc(F)c5nc(C)n(C(C)C)c5c4)n3)nc2)CC1 + CNC(=O)c1ccc(Nc2nc(OC3CCCC3)c3c(-c4ccc5nc(C)oc5c4)c[nH]c3n2)c(OC)c1
< 3.16 nM: IC50 (second compound 0.316 µM) | IC50 (second compound 1 µM) | IC50 (second compound 3.16 µM) | IC50 (second compound 10 µM)
6.4 nM: IC50 (second compound 0.1 µM)
inactive: viability, T/C (second compound 0.0316 µM, first compound 0.00316 µM) 88% | viability, T/C (second compound 0.0316 µM, first compound 0.01 µM) 90.2% | viability, T/C [1] 74.8% | viability, T/C [2] 56.8% | viability, T/C [3] 56.4% | viability, T/C [4] 46.2% | viability, T/C (second compound 0.1 µM, first compound 0.00316 µM) 59.3% | viability, T/C (second compound 0.1 µM, first compound 0.01 µM) 48% | viability, T/C [5] 31.6% | viability, T/C [6] 33.7% | viability, T/C [7] 31.8% | viability, T/C [8] 37.3% | viability, T/C (second compound 0.316 µM, first compound 0.00316 µM) 23.3% | viability, T/C (second compound 0.316 µM, first compound 0.01 µM) 27.7% | viability, T/C [9] 25.9% | viability, T/C [10] 20.9% | viability, T/C [11] 28.7% | viability, T/C [12] 30.9% | viability, T/C (second compound 1 µM, first compound 0.00316 µM) 19.8% | viability, T/C (second compound 1 µM, first compound 0.01 µM) 23.9% | viability, T/C [13] 18% | viability, T/C [14] 22.9% | viability, T/C [15] 22.2% | viability, T/C [16] 23.9% | viability, T/C (second compound 3.16 µM, first compound 0.00316 µM) 18.2% | viability, T/C (second compound 3.16 µM, first compound 0.01 µM) 23.4% | viability, T/C [17] 19.8% | viability, T/C [18] 18.6% | viability, T/C [19] 26.9% | viability, T/C [20] 22.7% | viability, T/C (second compound 10 µM, first compound 0.00316 µM) 18.2% | viability, T/C (second compound 10 µM, first compound 0.01 µM) 22.1% | viability, T/C [21] 22.3% | viability, T/C [22] 24% | viability, T/C [23] 18.5% | viability, T/C [24] 20%
> 1000 nM: IC50 (second compound 0.0316 µM)

Nc1ccccc1NC(=O)c1ccc(CNC(=O)OCc2cccnc2)cc1 + CNC(=O)c1ccc(Nc2nc(OC3CCCC3)c3c(-c4ccc5nc(C)oc5c4)c[nH]c3n2)c(OC)c1
active: viability, T/C (second compound 0.0316 µM, first compound 10 µM) 1.4% | viability, T/C (second compound 0.1 µM, first compound 10 µM) 1.14% | viability, T/C (second compound 0.316 µM, first compound 10 µM) 0.51% | viability, T/C (second compound 1 µM, first compound 3.16 µM) 10.4% | viability, T/C (second compound 1 µM, first compound 10 µM) 0.17% | viability, T/C (second compound 3.16 µM, first compound 3.16 µM) 7.63% | viability, T/C (second compound 3.16 µM, first compound 10 µM) 0.29% | viability, T/C (second compound 10 µM, first compound 3.16 µM) 8.45% | viability, T/C (second compound 10 µM, first compound 10 µM) 0.69%
inactive: viability, T/C [1] 77.8% | viability, T/C [2] 81.3% | viability, T/C [3] 79.9% | viability, T/C [4] 49.4% | viability, T/C (second compound 0.0316 µM, first compound 3.16 µM) 22.4% | viability, T/C [5] 46.5% | viability, T/C [6] 43.9% | viability, T/C [7] 44.9% | viability, T/C [8] 27.7% | viability, T/C (second compound 0.1 µM, first compound 3.16 µM) 21.1% | viability, T/C [9] 20.8% | viability, T/C [10] 16.2% | viability, T/C [11] 16.9% | viability, T/C [12] 18.2% | viability, T/C (second compound 0.316 µM, first compound 3.16 µM) 15.3% | viability, T/C [13] 18.5% | viability, T/C [14] 17.9% | viability, T/C [15] 14.9% | viability, T/C [16] 13.2% | viability, T/C [17] 17.5% | viability, T/C [18] 18.6% | viability, T/C [19] 12% | viability, T/C [20] 15.3% | viability, T/C [21] 19.9% | viability, T/C [22] 13.6% | viability, T/C [23] 16.6% | viability, T/C [24] 12.1%
1120 nM: IC50 (second compound 0.0316 µM)
< 31.6 nM: IC50 (second compound 0.1 µM) | IC50 (second compound 0.316 µM) | IC50 (second compound 1 µM) | IC50 (second compound 3.16 µM) | IC50 (second compound 10 µM)
